Data on ten compounds can be found in patent US7750184B2, “Vitamin D receptor modulators” (Eli Lilly and Company, priority 2003, dated 2010).

pEC50, pIC50: −log10 of the molar value. Read-outs that look alike come from different tables or passages of the source. A value given as a limit tells only on which side of the number the result lay.

Series [1] has as its target T1, RXR-VDR heterodimer (Homo sapiens, UniProt P11473).
T1 construct: Add the Gal4-RXR-DEF and VP16-VDR-LBD; expressed in transfected cells; host or cells: SaOS-2 cells
T1 sequence (P11473 127-423 limits assumed): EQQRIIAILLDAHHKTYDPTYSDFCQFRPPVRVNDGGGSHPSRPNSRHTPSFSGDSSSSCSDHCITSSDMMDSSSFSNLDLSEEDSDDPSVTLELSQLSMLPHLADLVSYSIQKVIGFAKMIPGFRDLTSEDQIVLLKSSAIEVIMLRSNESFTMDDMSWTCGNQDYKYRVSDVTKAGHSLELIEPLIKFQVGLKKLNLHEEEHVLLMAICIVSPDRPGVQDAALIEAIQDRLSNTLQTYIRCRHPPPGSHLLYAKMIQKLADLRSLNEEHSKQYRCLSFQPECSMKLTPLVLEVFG
T1 sequence (P19793 201-462 partner limits assumed): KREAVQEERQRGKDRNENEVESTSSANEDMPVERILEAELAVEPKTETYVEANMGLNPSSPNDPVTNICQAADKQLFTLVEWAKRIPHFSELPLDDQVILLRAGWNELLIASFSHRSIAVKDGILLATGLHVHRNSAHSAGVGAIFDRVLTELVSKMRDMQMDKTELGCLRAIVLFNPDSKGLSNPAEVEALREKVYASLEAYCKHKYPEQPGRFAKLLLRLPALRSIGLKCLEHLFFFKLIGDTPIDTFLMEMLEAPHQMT
Description: RXR-VDR heterodimerization assay (SaOS-2 cells). Format: cell-based. Conditions: Gal4-RXR-DEF / VP16-VDR-LBD, luciferase reporter. The source says:
1. The RXR-VDR heterodimer Assay:
This assay provides the VDR activity of a test compound.
(1) Materials and Method for RXR-VDR Heterodimerization Assay:
Luciferase Assay Reagent: • Use Steady-Glo Luciferase Reagent from Promega (Cat # E2550) Consists of:
Add plain DMEM media to tubes for mixing the DNA
Add the Reporter gene pFR-LUC
Add the Gal4-RXR-DEF and VP16-VDR-LBD
Make a stock solution of the compounds in DMSO
Further dilute in D-MEM (Low Glucose—With out Phenol Red)
Read the plates after drug treatment
Add Steady-Glo Luciferase Reagent mixture/wells
Count each well using a Luminescence counter, Top Count NXT by Packard

Series [2] concerns the target T2, VDR (Homo sapiens, UniProt P11473).
T2 construct: the receptor expression vector pGal4-VDR-LBD (10 ng); expressed in transfected cells; host or cells: Caco-2 cells
T2 sequence (P11473 127-423 limits assumed): T1 sequence (P11473 127-423 limits assumed)
Description: Caco-2 cell co-transfection assay (VDR CTF). In kind it is cell-based. Conditions: Caco-2 cells, pGal4-VDR-LBD co-transfection, luciferase reporter. How it is done:
2. The Caco-2 Cell Co-Transfection Assay:
The Caco-2 cell assay is an indicator for the undesirable condition of hypercalcemia. This co-transfection assay is a surrogate assay for in vivo calcemic activity of VDR ligands. […] Preferred assay results are greater than 1000 nM.
(2) Materials and Method for The Caco-2 Cell Assay:
Caco-2 cells, grown in phenol red free, DMEM (Invitrogen, Carlsbad, Calif.) containing 10% charcoal-stripped FCS (Hyclone, Logan, Utah), were transfected with Fugene 6 reagent (Roche Diagnostics, Indianapolis, Ind.). Cells (5000/well) were plated 18 h before transfection in a 96 well plate. The Cells were transfected with Gal4-responsive reporter pFRLuc (150 ng, Stratagene, La Jolla Calif.) and the receptor expression vector pGal4-VDR-LBD (10 ng), along with Fugene 6 reagent (0.2 μl/well). The DNA-Fugene complex was formed by incubating the mixture for 30 min at room temperature. The cells were transfected in triplicate for 5 h, and treated with various concentrations of VDR ligands (form 0.01 nM to 10,000 nM concentration range) 18 h post-transfection. The luciferase activity was quantified using Steady-Glo reagent kit (Promega, Madison, Wis.) as per manufacturer's specifications.
(In general: Reporter assays use an easily measured gene product as a stand-in for the process of interest.)

Series [3] has as its system rat osteocalcin promoter. Description: OCN (osteocalcin) promoter assay. Format: cell-based. The settings on record: Rattus norvegicus, 48 h, RG-15 (ROS 17/2.8) cells, 48 hr treatment, luciferase reporter. Here is the method: 3. The OCN (osteocalcin) Promoter Assay
The OCN Promoter Assay is an indicator and marker for osteoporosis. […] Preferred assay results are less than 50 nM.
(3) Materials and Method for the OCN Promoter Assay:
The activation of osteocalcin by VDR ligands was evaluated in a rat osteoblast-like cell line RG-15 (ROS 17/2.8) stably expressing rat osteocalcin promoter fused with luciferase reporter gene. […] Confluent RG-15 cells maintained in DMEM/F-12 medium (3:1) containing 5% FBS, 300 μg/ml G418 and at 37° C. under 5% CO2/95% air atmosphere were trypsinized (0.25% trypsin) and plated into white opaque 96-well cell culture plates (25000 cells/well). After 24 hr, cells (in DMEM/F-12 medium+2% FBS) were treated with various concentrations of compounds, dissolved in DMSO. The final DMSO concentration remained at 0.01% (v/v). After 48 hr treatment, the medium was removed, cells were lysed with 50 μl of lysis buffer (From Luciferase reporter assay system, Roche Diagnostics, Indianapolis, Ind.) and assayed for luciferase activity using the Luciferase Reporter Gene Assay kit from Boehringer Mannheim as per manufacturer's specifications.

For series [4] the following is noted: in vivo, po.
Description: (§1) The Mouse Hypercalcemia Assay is a six day hypercalcemia test for toxicity and selectivity. Acceptable test results are levels greater than 300 μg/kg/day. Preferred assay results are levels greater than 1000 μg/day.
(§2) (4) Materials and Method for the Mouse Hypercalcemia Assay:
(§3) Weanling, virus—antibody-free, five to six weeks old female DBF mice (Harlan, Indianapolis, Ind.) are used for all the studies. Animals are allowed to acclimate to local vivarium conditions for 2 days. […] The animals then are divided into groups with 4-5 mice per group. Different doses of test compounds prepared in 10% Ethanol and 90% sesame oil are administered to mice orally via gavage for 6 days. 1α-25(OH)2D3 0.5 μg/kg/d was also given to one group of mice as the positive control. […] Raw data of group differences is assessed by analysis of variance (ANOVA) using Fisher's protected least significant difference (PLSD) where the significance level was P<0.05.
The subject of series [5] is KERtr cells. Description: Keratinocyte proliferation assay. The settings on record: Homo sapiens, 72 hr, BrdU incorporation, read-out: Kera. Prolif. IC50. In kind it is cell-based. How it is done: 5. The Keratinocte Proliferation Assay
This Assay is indicative for the treatment of psoriasis.
(5) The Keratinocyte Proliferation Assay:
KERtr cells (Human skin keratinocyte transformed with a retrovirus vector, obtained from ATCC) were plated in 96-well flat-bottomed plates (3000 cells/well) in 100 µl keratinocyte serum free medium supplemented with bovine pituitary extract in the absence of EGF (Life Technologies, Rockville, Md.) and incubated at 37° C. for two days. The cells were treated with various concentrations of VDR ligands (ten-fold serial dilution from 10,000 nM to 0.1 nM in triplicate), dissolved in 100 μl keratinocyte serum free medium supplemented with bovine pituitary extract in the absence of EGF and incubated at 37° C. for 72 hr. BrdU (5-bromo-2′-deoxyuridine) incorporation was analyzed as a measure of DNA replication (Cell proliferation ELISA kit, Roche Diagnostics, Indianapolis, Ind.) and absorbance was measured at 405 nm. Potency values (IC50) values were determined as the concentration (nM) of compound that elicited a half-maximal response.

Series [6] can be described thus: Mouse hypercalcemia assay. The settings on record: oral gavage for 6 days, serum ionized calcium 6 hours after last dosing.
Description: as §1, §2, §3

In general, pEC50 refers to the EC50 on a negative log10 scale, so that one unit is a factor of ten. By EC50 is commonly meant the concentration needed to bring the measured effect to its halfway point. A lower EC50 goes with higher potency in that assay. As to `CCC(CC)(c1ccc(OC[C@@](C)(O)C(C)(C)C)c(C)c1)c1ccc(OS(=O)(=O)C(F)(F)F)c(C)c1` (stereo in doubt) [Ex. 35, trifluoro-methanesulfonic acid 4-{1-ethyl-1-[4-(2-hydroxy-2,3,3-trimethyl-butoxy)-3-methyl-phenyl]-propyl}-2-methyl-phenyl ester], the pEC50 in series [1] was 6.86; in series [3] it was 7.70. For the same compound, in series [2], it took 616 nM to reach a half-maximal effect (EC50).
In the case of `C=C1/C(=C\C=C2/CCC[C@]3(C)[C@@H]([C@H](C)CCCC(C)(C)O)CC[C@@H]23)C[C@@H](O)C[C@@H]1O` [AA, 1α,25-dihydroxyvitamin D3], the “Mouse Hypercal” value in series [4] came to 0.06 µg/kg/day.
As for `CCC(CC)(c1ccc(OC[C@H](O)C(C)(C)C)c(C)c1)c1ccc(OS(C)(=O)=O)c(C)c1` [Ex. 1, 3′-[4-(2-hydroxy-3,3-dimethylbutoxy)-3-methylphenyl]-3′-[4-(methanesulfonyloxy)-3-methylphenyl]pentane], the pEC50 in series [1] was 8.47; in series [3], 8.57. This compound showed an EC50 in series [2] of 118 nM.
As a reminder, the pIC50 is the IC50 on a negative log10 scale, so that one unit is a factor of ten. For the compound `CCC(CC)(c1ccc(OCC(=O)C(C)(C)C)c(C)c1)c1ccc(N(C)S(C)(=O)=O)c(C)c1` [Ex. 18, N-(4-{1-[4-(3,3-Dimethyl-2-oxo-butoxy)-3-methyl-phenyl]-1-ethyl-propyl}-2-methyl-phenyl)-N-methyl-methanesulfonamide], the negative logarithm of the EC50 (pEC50) is 7.16 in series [1] and 8.12 in series [3]. The compound further displayed an EC50 in series [2] of 485 nM. Moreover, the negative logarithm of the IC50 (pIC50) in series [5] is 7.49. The “Mouse Hypercal” value in series [6] was 1500 µg/kg/day.
For the compound `CCC(CC)(c1ccc(NS(=O)(=O)CC)c(C)c1)c1ccc(OCC(=O)C(C)(C)C)c(C)c1` [Ex. 23, N-(4-{1-[4-(3,3-Dimethyl-2-oxo-butoxy)-3-methyl-phenyl]-1-ethyl-propyl}-2-methyl-phenyl)-ethanesulfonamide], the pEC50 in series [1] was 9.09; in series [3], 9.48. The EC50 in series [2] stood at 6.06 nM. The “Mouse Hypercal” value in series [6] was 500 µg/kg/day.
As for `CCCS(=O)(=O)N(c1ccc(C(CC)(CC)c2ccc(OCC(=O)C(C)(C)C)c(C)c2)cc1C)S(=O)(=O)CCC` [Ex. 25, N-(4-{1-[4-(3,3-Dimethyl-2-oxo-butoxy)-3-methyl-phenyl]-1-ethyl-propyl}-2-methyl-phenyl)-N,N-bis-1-propanesulfonamide], the pEC50 was 7.33 in series [1] and 7.47 in series [3]. This compound also displayed an EC50 in series [2] of 1290 nM. Further, the pIC50 in series [5] was 7.84.
For `CCCS(=O)(=O)Nc1ccc(C(CC)(CC)c2ccc(OCC(=O)C(C)(C)C)c(C)c2)cc1C` [Ex. 26, N-(4-{1-[4-(3,3-Dimethyl-2-oxo-butoxy)-3-methyl-phenyl]-1-ethyl-propyl}-2-methyl-phenyl)-1-propanesulfonamide], the pEC50 in series [1] is 8.24; in series [3] it was 8.43. Further, in series [2], it took 333 nM to reach a half-maximal effect (EC50). Besides, in series [5], the negative-log IC50 (pIC50) was 8.36. In addition, the “Mouse Hypercal” value in series [6] was less than 1000 µg/kg/day.
Turning to `CCC(CC)(c1ccc(OCC(=O)C(C)(C)C)cc1)c1ccc(OS(C)(=O)=O)c(C)c1` [Ex. 36, 3′-[4-(2-oxo-3,3-dimethylbutoxy)-phenyl]-3′-[4-methylsulfonyloxy-3-methylphenyl]pentane], the pEC50 in series [1] was 7.82; in series [3], 7.34. The response in series [2] was half-maximal at 592 nM (EC50). Also, the pIC50 in series [5] is 7.44. In addition, the “Mouse Hypercal” value in series [6] was more than 3000 µg/kg/day.
For `CCC(CC)(c1ccc(OS(C)(=O)=O)cc1)c1ccc(OCC(=O)C(C)(C)C)c(Cl)c1` [Ex. 42, 3′-[3-chloro-4-(2-oxo-3,3-dimethylbutoxy)phenyl]-3′-[4-(methylsulfonyloxy)phenyl]pentane] the same measures were 6.31, 7.60, 728 nM, 8.05 and less than 1000 µg/kg/day.
For `CCC(CC)(c1ccc(OS(=O)(=O)C(F)(F)F)cc1)c1ccc(OCC(O)C(C)(C)C)c(Cl)c1` (stereo not drawn) [Ex. 47, 53, 3′-[3-chloro-4-(2-hydroxy-3.3-dimethylbutoxy)phenyl]-3′-(4-trifluoromethylsulfonyloxyphenyl)pentane], the pEC50 in series [1] is 7.90; in series [3], 7.03. The EC50 in series [2] came to 431 nM. In addition, the pIC50 in series [5] was 6.52.
